Test results as given in PMC5805805 (Investigational New Drugs, 2017).
Each block holds one compound with its values, some of them ahead of it.

Columns and labels:
[1] = everolimus; cited from earlier work
[2] = Everolimus pharmacokinetics in whole blood (HPLC-MS/MS), single-agent and combined with metformin; type: in vivo, human; conditions: for k el: read-out: λz (converted); for half-life: all 7 patients, mean (SD)
Experimental: (§1) The pharmacokinetic parameters were calculated using PKSolver. All P values were calculated using the R statistical programming language (paired Student’s t-test).

endometrial cancer = conditions: cited from earlier work
clinical = test: clinical
Experimental: as §1

- Cmax ([2]; everolimus 5 mg qd, in combination with metformin 500 mg bid, n = 2): 39.45 ng/mL
- Cmax ([2]; everolimus 5 mg qd, single-agent, n = 2): 34.80 ng/mL
- AUC ([2]; everolimus 10 mg qd, single-agent, AUC t = 0 to 24 h, n = 5, mean (SD)): 0.713 (0.35) mg/l*h
- AUC ([2]; human, whole blood, oral, 5 mg, everolimus 5 mg qd, single-agent, n = 2, read-out: AUC): 282 ng·h/mL
- k el ([2]; human, whole blood, oral, 5 mg, everolimus 5 mg qd, single-agent, n = 2): 1.22e-05 s⁻¹
- k el ([2]; human, whole blood, oral, 10 mg, everolimus 10 mg qd, single-agent, n = 5, mean (SD)): 7.78e-06 s⁻¹
- clearance ([2]; human, whole blood, oral, everolimus as single agent): 162 mL/min
- clearance ([2]; human, whole blood, oral, everolimus in combination with metformin): 300 mL/min
- AUC ([2]; human, whole blood, oral, everolimus 5 mg qd, in combination with metformin, n = 2, read-out: AUC): 254 ng·h/mL
- k el ([2]; human, whole blood, oral, everolimus 5 mg qd, in combination with metformin, n = 2): 9.72e-06 s⁻¹
- AUC ([2]; human, whole blood, oral, everolimus 10 mg qd, in combination with metformin, AUC t = 0 to 24 h, n = 5, mean (SD), read-out: AUC): 639 ng·h/mL
- k el ([2]; human, whole blood, oral, everolimus 10 mg qd, in combination with metformin, n = 5, mean (SD)): 8.06e-06 s⁻¹
- half-life ([2]; human, whole blood, oral, everolimus in combination with metformin (day 15)): 23.2 h
- half-life ([2]; human, whole blood, oral, everolimus single-agent (day 7)): 23.1 h
- Cmax ([2]; human, whole blood, oral, everolimus 10 mg qd, single-agent (day 7), n = 5, mean (SD), read-out: Cmax): 73.1 ng/mL
Compound: CO[C@H]1C[C@@H]2CC[C@@H](C)[C@@](O)(O2)C(=O)C(=O)N2CCCC[C@H]2C(=O)O[C@H]([C@H](C)C[C@@H]2CC[C@@H](OCCO)[C@H](OC)C2)CC(=O)[C@H](C)/C=C(\C)[C@@H](O)[C@@H](OC)C(=O)[C@H](C)C[C@H](C)/C=C/C=C/C=C/1C [everolimus]
- elimination half-life (t1/2) [1]: 30 h

Compound: CN(C)C(=N)N=C(N)N [metformin]
- rate of disease progression (endometrial cancer; self-reported metformin use with an mTOR inhibitor, vs. 33% without): 12%
- response rate to an mTOR inhibitor (endometrial cancer; self-reported metformin use, 94 patients, three trials of various mTOR inhibitors, vs. 7% without): 18%
- AUC (clinical; human, in vivo, 500 mg): 8320 ng·h/mL
- k el (clinical; human, in vivo, 500 mg): 4.72e-05 s⁻¹
- Cmax (clinical; metformin 500 mg bid, in combination with everolimus (day 15), n = 5, mean (SD)): 1027 (261) μg/l
